32 compounds from patent US9102591B2, “Benzamides” (H. Lundbeck A/S, priority 2012, dated 2015) can be followed below.

The target in the assay is P2X7 receptor (Homo sapiens (Human), UniProt Q99572). The assay can be described thus: P2X7 FLIPR assay (BzATP-stimulated calcium fluorescence, antagonist IC50). The assay is classed as cell-based. A digest of the protocol: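 Cells expressing P2X7 receptor (human, rat or mouse), plated 24 hours earlier in low-serum medium, loaded with Fluo-4 NW dye (30 min 37° C, 30 min room temperature).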
P2X7 receptor, sequence (Q99572 whole entry): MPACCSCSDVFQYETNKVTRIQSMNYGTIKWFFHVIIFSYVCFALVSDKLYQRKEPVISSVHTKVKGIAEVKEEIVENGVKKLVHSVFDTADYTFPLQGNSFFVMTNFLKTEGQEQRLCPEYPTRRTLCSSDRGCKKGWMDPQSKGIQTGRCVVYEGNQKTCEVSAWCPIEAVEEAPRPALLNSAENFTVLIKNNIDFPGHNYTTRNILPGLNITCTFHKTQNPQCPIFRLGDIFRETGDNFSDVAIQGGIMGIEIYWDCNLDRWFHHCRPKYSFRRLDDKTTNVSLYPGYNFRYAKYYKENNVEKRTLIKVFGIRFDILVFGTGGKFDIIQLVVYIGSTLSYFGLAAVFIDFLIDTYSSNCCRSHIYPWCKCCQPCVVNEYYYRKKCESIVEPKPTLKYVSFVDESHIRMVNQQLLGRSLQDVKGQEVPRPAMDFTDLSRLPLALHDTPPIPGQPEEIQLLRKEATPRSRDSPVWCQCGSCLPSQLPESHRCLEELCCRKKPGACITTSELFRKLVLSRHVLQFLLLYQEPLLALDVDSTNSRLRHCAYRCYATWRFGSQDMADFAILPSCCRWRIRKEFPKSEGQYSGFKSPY

For orientation: IC50 means the concentration needed to halve the response being measured.

Structures are written as SMILES. Where two headings read alike, the source gives them in different places.

Consider `O=C(NCC(CC1(F)CC1)c1ccc(C(F)(F)F)nc1)c1cccc(Cl)c1Cl` (centres unmarked) [2,3-dichloro-N-[3-(1-fluorocyclopropyl)-2-[6-(trifluoromethyl)-3-pyridyl]propyl]benzamide], for which the IC50 is 3.7 nM. The same measure, in the same setting: the figure for `O=C(NCC(CC1CC1)c1cnc(C(F)F)nc1)c1cccc(Cl)c1Cl` (single isomer, unassigned; (-)) [(−)2,3-dichloro-N-[3-cyclopropyl-2-[2-(difluoromethyl)pyrimi] [(−)2,3-dichloro-N-[3-cyclopropyl-2-[2-(difluoromethyl)pyrimidin-5-yl]propyl]benzamide] is 1.9 nM; for `O=C(NCC1(c2cncc(F)c2)CCC(F)(F)CC1)c1cccc(Cl)c1Cl` [2,3-dichloro-N-((4,4-difluoro-1-(5-fluoropyridin-3-yl)cyclohexyl)methyl)benzamide] it is 1.2 nM; for `Cc1ncc(C(CNC(=O)c2ccccc2Cl)CC2CC2)cn1` (centres unmarked) [2-chloro-N-[3-cyclopropyl-2-(2-methylpyrimidin-5-yl)propyl]benzamide] it is 1200 nM. On the same count and under the same terms, then `Cc1ccc(C2(CNC(=O)c3cccc(Cl)c3Cl)CCC(F)(F)CC2)cn1`, with 7.3 nM; and `CC(CNC(=O)c1ccccc1Cl)(CC1CC1)c1cnc(C(F)(F)F)nc1` (centres unmarked) [2-chloro-N-[3-cyclopropyl-2-methyl-2-[2-(trifluoromethyl)pyr] [2-chloro-N-[3-cyclopropyl-2-methyl-2-[2-(trifluoromethyl)pyrimidin-5-yl]propyl]benzamide], with 21 nM. On the same count and under the same terms, the figure for `O=C(NCC(c1cnc(C(F)(F)F)nc1)C1CCOCC1)c1cccc(Cl)c1Cl` (single isomer, unassigned; (-)) [(−)2,3-dichloro-N-[2-tetrahydropyran-4-yl-2-[2-(trifluoromethyl)pyrimidin-5-yl]ethyl]benzamide] is 11 nM; for `Cc1cccc(C(=O)NCC2(c3ccc(Cl)cc3)CCOCC2)c1C` [N-[4-(4-Chloro-phenyl)-tetrahydro-pyran-4-ylmethyl]-2,3-dimethyl-benzamide] it is 170 nM. With `COc1cccc(C(=O)NCC(CC2CC2)c2ccc(C(F)(F)F)nc2)c1Cl` (single isomer, unassigned; (-)) [(−)2-chloro-N-[3-cyclopropyl-2-[6-(trifluoromethyl)-3-pyridy] [(−)2-chloro-N-[3-cyclopropyl-2-[6-(trifluoromethyl)-3-pyridyl]propyl]-3-methoxy-benzamide], the 50% inhibitory concentration (IC50) was found to be 4.2 nM. On the same count and under the same terms, then `Cc1ncc(C2(C(C)NC(=O)c3ccccc3Cl)CCC(F)(F)CC2)cn1` (centres unmarked) [2-chloro-N-[1-[4,4-difluoro-1-(2-methylpyrimidin-5-yl)cyclohexyl]ethyl]benzamide], with 1600 nM; and `O=C(NCC(CC1CC1)c1ccc(C(F)(F)F)nc1)c1cccc(F)c1Cl` (single isomer, unassigned; (+)) [(+)2-chloro-N-[3-cyclopropyl-2-[6-(trifluoromethyl)-3-pyridy] [(+)2-chloro-N-[3-cyclopropyl-2-[6-(trifluoromethyl)-3-pyridyl]propyl]-3-fluoro-benzamide], with 11 nM; and `O=C(NCC(CC1CC1)c1cnc(C(F)(F)F)nc1)c1cccc(F)c1Cl` (single isomer, unassigned; (-)) [(−)2-chloro-N-[3-cyclopropyl-2-[2-(trifluoromethyl)pyrimidin] [(−)2-chloro-N-[3-cyclopropyl-2-[2-(trifluoromethyl)pyrimidin-5-yl]propyl]-3-fluoro-benzamide], with 4.7 nM. Regarding `Cc1ncc(C2(C(C)NC(=O)c3cccc(F)c3Cl)CCOCC2)cn1` (centres unmarked) [2-chloro-3-fluoro-N-[1-[4-(2-methylpyrimidin-5-yl)tetrahydropyran-4-yl]ethyl]benzamide], the IC50 was 15 nM. The same measure, in the same setting: then `O=C(NCC1(c2ccc(C(F)(F)F)nc2)CCC(F)(F)CC1)c1cccc(F)c1Cl` [2-chloro-N-((4,4-difluoro-1-(6-(trifluoromethyl)pyridin-3-yl)cyclohexyl)methyl)-3-fluorobenzamide], with 1.4 nM. On the same count and under the same terms, the figure for `O=C(NCC(c1ccc(F)cc1)c1ccc(C(F)(F)F)nc1)c1c(F)cccc1Cl` (single isomer, unassigned; (+)) [(+)2-chloro-6-fluoro-N-[2-(4-fluorophenyl)-2-[6-(trifluorome] [(+)2-chloro-6-fluoro-N-[2-(4-fluorophenyl)-2-[6-(trifluoromethyl)-3-pyridyl]ethyl]benzamide] is 15 nM; for `COc1ccc(C2(CNC(=O)c3cccc(Cl)c3Cl)CCCC2)cc1` [2,3-Dichloro-N-[1-(4-methoxy-phenyl)-cyclopentylmethyl]-benzamide] it is 260 nM.

Consider `Cc1ncc(C(CNC(=O)c2c(Cl)cccc2Cl)CC2CC2)cn1` (single isomer, unassigned; (-)) [(−)2,6-dichloro-N-[3-cyclopropyl-2-(2-methylpyrimidin-5-yl)p] [(−)2,6-dichloro-N-[3-cyclopropyl-2-(2-methylpyrimidin-5-yl)propyl]benzamide], for which the 50% inhibitory concentration (IC50) stood at 9.9 nM.

For `O=C(NCC(CC1CC1)c1ccc(C(F)(F)F)nc1)c1cccc(F)c1Cl` (stereo not drawn) [2(−)-chloro-N-[3-cyclopropyl-2-[6-(trifluoromethyl)-3-pyridy] [2(−)-chloro-N-[3-cyclopropyl-2-[6-(trifluoromethyl)-3-pyridyl]propyl]-3-fluoro-benzamide], the IC50 came out at 2.9 nM.

Consider `O=C(NCC(CC1CC1)c1ccc(C(F)(F)F)nc1)c1c(F)cccc1F` (single isomer, unassigned; (+)) [(+)N-[3-cyclopropyl-2-[6-(trifluoromethyl)-3-pyridyl]propyl]] [(+)N-[3-cyclopropyl-2-[6-(trifluoromethyl)-3-pyridyl]propyl]-2,6-difluoro-benzamide], for which the IC50 was 740 nM.

Turning to `O=C(NCC(CC1(C(F)(F)F)CC1)c1ccc(C2CC2)nc1)c1ccccc1F` (centres unmarked) [N-[2-(6-cyclopropyl-3-pyridyl)-3-[1-(trifluoromethyl)cyclopropyl]propyl]-2-fluoro-benzamide], the IC50 is 1700 nM. Still for that read-out and setting: the figure for `O=C(NCC(CC1(C(F)(F)F)CC1)c1cnc(C(F)(F)F)nc1)c1cccc(F)c1Cl` (single isomer, unassigned; (+)) [(+)2-chloro-3-fluoro-N-[3-[1-(trifluoromethyl)cyclopropyl]-2] [(+)2-chloro-3-fluoro-N-[3-[1-(trifluoromethyl)cyclopropyl]-2-[2-(trifluoromethyl)pyrimidin-5-yl]propyl]benzamide] is 4.5 nM; for `O=C(NCC(CC1(C(F)(F)F)CC1)c1ccc(C(F)(F)F)nc1)c1ccccc1Cl` (centres unmarked) [2-chloro-N-[3-[1-(trifluoromethyl)cyclopropyl]-2-[6-(trifluo] [2-chloro-N-[3-[1-(trifluoromethyl)cyclopropyl]-2-[6-(trifluoromethyl)-3-pyridyl]propyl]benzamide] it is 2.1 nM; for `O=C(NCC(CC1(C(F)(F)F)CC1)c1ccc(C(F)(F)F)nc1)c1ccccc1F` (centres unmarked) [2-fluoro-N-[3-[1-(trifluoromethyl)cyclopropyl]-2-[6-(trifluoromethyl)-3-pyridyl]propyl]benzamide] it is 430 nM.

Take `COc1ccc(F)c(C(=O)NCC2(c3ccc(F)nc3)CCC(F)(F)CC2)c1` [N-((4,4-difluoro-1-(6-fluoropyridin-3-yl)cyclohexyl)methyl)-2-fluoro-5-methoxybenzamide]: the half-inhibitory concentration (IC50) was determined as 65 nM. Still for that read-out and setting: the figure for `O=C(NCC(c1ccc(C(F)(F)F)nc1)C1CC1)c1cccc(Cl)c1Cl` (centres unmarked) [2,3-dichloro-N-(2-cyclopropyl-2-(6-(trifluoromethyl)pyridin-3-yl)ethyl)benzamide] is 120 nM; for `O=C(NCC(c1ccncc1)c1ccc(C(F)(F)F)nc1)c1cccc(Cl)c1Cl` (centres unmarked) [2,3-dichloro-N-[2-(4-pyridyl)-2-[6-(trifluoromethyl)-3-pyridyl]ethyl]benzamide] it is 200 nM. Regarding `O=C(NCC(c1cnc(C(F)(F)F)nc1)C1CCC(F)(F)CC1)c1c(F)cccc1Cl` (single isomer, unassigned; (-)) [(−)2-chloro-N-[2-(4,4-difluorocyclohexyl)-2-[2-(trifluoromet] [(−)2-chloro-N-[2-(4,4-difluorocyclohexyl)-2-[2-(trifluoromethyl)pyrimidin-5-yl]ethyl]-6-fluoro-benzamide], the IC50 was 61 nM. As to `O=C(NCC(CC1CC1)c1ccc(F)nc1)c1ccccc1Cl` (single isomer, unassigned; (+)) [Example 4w, (+)-2-chloro-N-(3-cyclopropyl-2-(6-fluoropyridin-3-A)propyl)benzamide], the IC50 (listed as (+)2-chloro-N-[3-cyclopropyl-2-(6-fluoro-3-pyridyl)propyl]benzamide) amounted to 510 nM. Consider `O=C(NCC(CC1(C(F)(F)F)CC1)c1cnc(C(F)(F)F)nc1)c1cccc(Cl)c1Cl` (single isomer, unassigned; (-)) [(−)2,3-dichloro-N-[3-[1-(trifluoromethyl)cyclopropyl]-2-[2-(] [(−)2,3-dichloro-N-[3-[1-(trifluoromethyl)cyclopropyl]-2-[2-(trifluoromethyl)pyrimidin-5-yl]propyl]benzamide], for which the half-inhibitory concentration (IC50) came out at 21 nM. In the case of `O=C(NCC(c1cnc(C(F)(F)F)nc1)C1CCC(F)(F)CC1)c1ccccc1Cl` (single isomer, unassigned; (-)) [(−)2-chloro-N-[2-(4,4-difluorocyclohexyl)-2-[2-(trifluoromet] [(−)2-chloro-N-[2-(4,4-difluorocyclohexyl)-2-[2-(trifluoromethyl)pyrimidin-5-yl]ethyl]benzamide], the 50% inhibitory concentration (IC50) was 6.4 nM. The same measure, in the same setting: then `O=C(NCC(CC1(C(F)(F)F)CC1)c1ccc(C(F)(F)F)nc1)c1cccc(Cl)c1Cl` (centres unmarked) [2,3-dichloro-N-[3-[1-(trifluoromethyl)cyclopropyl]-2-[6-(tri] [2,3-dichloro-N-[3-[1-(trifluoromethyl)cyclopropyl]-2-[6-(trifluoromethyl)-3-pyridyl]propyl]benzamide], with 19 nM. `O=C(NCC(c1cnc(C(F)(F)F)nc1)C1CCOCC1)c1c(F)cccc1Cl` (single isomer, unassigned; (-)) [(−)2-chloro-6-fluoro-N-[2-tetrahydropyran-4-yl-2-[2-(trifluo] [(−)2-chloro-6-fluoro-N-[2-tetrahydropyran-4-yl-2-[2-(trifluoromethyl)pyrimidin-5-yl]ethyl]benzamide]: the concentration for half-maximal inhibition (IC50) was found to be 68 nM.
